According to patent US6440903B1, “Substituted 2,4-diamino-1,3,5-triazines as herbicides” (Bayer Aktiengesellschaft, priority 1996, dated 2002):

Columns and labels:
Assay type in all cases: in vivo
weeds = assay: Post-emergence test (summary in text); conditions: result in words
Protocol: Solvent: 5 parts by weight of acetone
Emulsifier: 1 part by weight of alkylaryl polyglycol ether
To produce a suitable preparation of active compound, 1 part by weight of active compound is mixed with the stated amount of solvent, the stated amount of emulsifier is added and the concentrate is diluted with water to the desired concentration.
Test plants which have a height of 5-15 cm are sprayed with the preparation of active compound such that the particular amounts of active compounds desired are applied per unit area. The concentration of the spray liquor is chosen so that the particular amounts of active compound desired are applied in 1000 l of water/ha.
After three weeks, the degree of damage to the plants is scored visually in % damage in comparison to the untreated control.
0%=no effect (like untreated control)

Chenopodium = assay: Post-emergence test; conditions: greenhouse, scored after three weeks; for pest or weed control at 250 g/ha / pest or weed control at 500 g/ha: Chenopodium, 504 h, read-out: % damage, Chenopodium; for pest or weed control at 250 g/ha: 250 g of ai./ha
Protocol: (§1) Post-emergence Test Solvent: 5 parts by weight of acetone Emulsifier: 1 part by weight of alkylaryl polyglycol ether To produce a suitable preparation of active compound, 1 part by weight of active compound is mixed with the stated amount of solvent, the stated amount of emulsifier is added and the concentrate is diluted with water to the desired concentration. Test plants which have a height of 5-15 cm are sprayed with the preparation of active compound such that the particular amounts of active compounds desired are applied per unit area. The concentration of the spray liquor is chosen so that the particular amounts of active compound desired are applied in 1000 l of water/ha. After three weeks, the degree of damage to the plants is scored visually in % damage in comparison to the untreated control. The Figures Denote: 0%=no effect (like untreated control) 100%=total destruction

Setaria = assay: Post-emergence test; conditions: greenhouse, scored after three weeks; for pest or weed control at 250 g/ha / pest or weed control at 500 g/ha: Setaria, 504 h, read-out: % damage, Setaria; for pest or weed control at 250 g/ha: 250 g of ai./ha
Protocol: as §1

Viola = assay: Post-emergence test; conditions: greenhouse, scored after three weeks; for pest or weed control at 250 g/ha / pest or weed control at 500 g/ha: 504 h, read-out: % damage, Viola; for pest or weed control at 250 g/ha: 250 g of ai./ha
Protocol: as §1

Polygonum = assay: Post-emergence test; conditions: greenhouse, scored after three weeks; for pest or weed control at 250 g/ha / pest or weed control at 500 g/ha: Polygonum, 504 h, read-out: % damage, Polygonum; for pest or weed control at 250 g/ha: 250 g of ai./ha
Protocol: as §1

Amaranthus = assay: Post-emergence test; conditions: greenhouse, scored after three weeks; for pest or weed control at 250 g/ha / pest or weed control at 500 g/ha: Amaranthus, 504 h, read-out: % damage, Amaranthus; for pest or weed control at 250 g/ha: 250 g of ai./ha
Protocol: as §1

Wheat = assay: Post-emergence test; conditions: greenhouse, scored after three weeks; for plant injury at 250 g/ha / plant injury at 500 g/ha: Triticum aestivum, 504 h, read-out: % damage, Wheat; for plant injury at 500 g/ha: 500 g of ai./ha
Protocol: as §1

CC(Nc1nc(N)nc(Cl)n1)c1ccc(Cl)cc1 (stereo not drawn) [Example 8] was tested. Which activity against weeds (weeds) did it give?
The activity against weeds was “strong activity”.

What does the source list for CC(Cl)c1nc(N)nc(NC(C)c2ccc(Cl)cc2)n1 (stereo not drawn) [drawing 120]?
pest or weed control at 250 g/ha (Chenopodium): 100%; pest or weed control at 250 g/ha (Setaria): 80%; pest or weed control at 250 g/ha (Viola): 100%; pest or weed control at 250 g/ha (Polygonum): 100%; pest or weed control at 250 g/ha (Amaranthus): 100%; % damage, Wheat (Wheat; 250 g of ai./ha): 0%

How did the activity against weeds (weeds) turn out when CCc1nc(N)nc(NC(C)c2ccc(Cl)cc2)n1 (stereo not drawn) [Example 166] was run?
Its activity against weeds is “strong activity”.

Which pest or weed control at 250 g/ha (Chenopodium) does the source give for CC(Nc1nc(N)nc(C(Cl)Cl)n1)c1ccc(Cl)cc1 (stereo not drawn) [drawing 119] here?
Its pest or weed control at 250 g/ha is 100%.

And the pest or weed control at 250 g/ha (Setaria)?
The pest or weed control at 250 g/ha was 90%.

And the pest or weed control at 250 g/ha (Viola)?
Its pest or weed control at 250 g/ha is 100%.

What about the pest or weed control at 250 g/ha (Polygonum) of the same compound?
Its pest or weed control at 250 g/ha is 100%.

And the pest or weed control at 250 g/ha (Amaranthus)?
The pest or weed control at 250 g/ha was 100%.

What about the plant injury at 250 g/ha (Wheat; 250 g of ai./ha) of the same compound?
The plant injury at 250 g/ha was 10%.

CC(Nc1nc(N)nc(Cl)n1)c1ccc(Cl)cc1 (stereo not drawn) [Example 4] was tested. Which activity against weeds (weeds) did it give?
The activity against weeds was “strong activity”.

With CC(Nc1nc(N)nc(C(F)(F)F)n1)c1ccc(Cl)cc1 (stereo not drawn) [Example 15] as the compound, how does the activity against weeds (weeds) read?
The activity against weeds was “strong activity”.

Which pest or weed control at 250 g/ha (Chenopodium) does the source give for CC(Nc1nc(N)nc(C(F)(F)C(F)(F)F)n1)c1ccc(Cl)cc1 (stereo not drawn) here?
Its pest or weed control at 250 g/ha is 100%.

What about the pest or weed control at 250 g/ha (Setaria) of the same compound?
Its pest or weed control at 250 g/ha is 100%.

And the pest or weed control at 250 g/ha (Viola)?
The pest or weed control at 250 g/ha was 100%.

And the pest or weed control at 250 g/ha (Polygonum)?
The pest or weed control at 250 g/ha was 100%.

And the pest or weed control at 250 g/ha (Amaranthus)?
The pest or weed control at 250 g/ha was 100%.

And the plant injury at 250 g/ha (Wheat; 250 g of ai./ha)?
The plant injury at 250 g/ha was 10%.

CCc1nc(N)nc(NC(C)c2ccc(Cl)cc2)n1 (stereo not drawn) [drawing 127] was tested. Which “% damage, Chenopodium” value (Chenopodium; 500 g of ai./ha) did it give?
The value was 100%.

And the “% damage, Setaria” value (Setaria; 500 g of ai./ha)?
Its value is 100%.

And the “% damage, Viola” value (Viola; 500 g of ai./ha)?
Its value is 100%.

What about the “% damage, Polygonum” value (Polygonum; 500 g of ai./ha) of the same compound?
Its value is 100%.

What about the “% damage, Amaranthus” value (Amaranthus; 500 g of ai./ha) of the same compound?
The value was 100%.

Which pest or weed control at 500 g/ha (Chenopodium; 500 g of ai./ha) does the source give for COc1ccc(C(C)Nc2nc(N)nc(C(F)(F)F)n2)cc1 (stereo not drawn) [drawing 138] here?
The pest or weed control at 500 g/ha was 100%.

And the pest or weed control at 500 g/ha (Setaria; 500 g of ai./ha)?
Its pest or weed control at 500 g/ha is 100%.

What about the pest or weed control at 500 g/ha (Viola; 500 g of ai./ha) of the same compound?
The pest or weed control at 500 g/ha was 100%.

What about the pest or weed control at 500 g/ha (Polygonum; 500 g of ai./ha) of the same compound?
The pest or weed control at 500 g/ha was 100%.

And the pest or weed control at 500 g/ha (Amaranthus; 500 g of ai./ha)?
The pest or weed control at 500 g/ha was 100%.

And the plant injury at 500 g/ha (Wheat)?
Its plant injury at 500 g/ha is 0%.

With COc1ccc(C(C)Nc2nc(N)nc(C(C)F)n2)cc1 (stereo not drawn) [Example 190] as the compound, how does the activity against weeds (weeds) read?
The activity against weeds was “strong activity”.

CC(Nc1nc(N)nc(C(C)(Cl)Cl)n1)c1ccc(Cl)cc1 (stereo not drawn) [Example 97] was tested. Which activity against weeds (weeds) did it give?
The activity against weeds was “strong activity”.

With CC(Nc1nc(N)nc(C(F)(F)F)n1)c1ccc(Cl)cc1 (stereo not drawn) [Example 21] as the compound, how does the activity against weeds (weeds) read?
The activity against weeds was “strong activity”.

Which results are given for CC(Nc1nc(N)nc(C(Cl)Cl)n1)c1ccc(Cl)cc1 (stereo not drawn) [drawing 129]?
pest or weed control at 500 g/ha (Chenopodium; 500 g of ai./ha): 100%; pest or weed control at 500 g/ha (Setaria; 500 g of ai./ha): 100%; pest or weed control at 500 g/ha (Viola; 500 g of ai./ha): 100%; pest or weed control at 500 g/ha (Polygonum; 500 g of ai./ha): 100%; pest or weed control at 500 g/ha (Amaranthus; 500 g of ai./ha): 100%; plant injury at 500 g/ha (Wheat): 10%

Which activity against weeds (weeds) does the source give for CC(Nc1nc(N)nc(Cl)n1)c1ccc(Cl)cc1 (stereo not drawn) [Example 5] here?
The activity against weeds was “strong activity”.

What does the source list for CC(=O)Nc1nc(NC(C)c2ccc(Cl)cc2)nc(C(C)Cl)n1 (stereo not drawn) [drawing 134]?
pest or weed control at 500 g/ha (Chenopodium; 500 g of ai./ha): 100%; pest or weed control at 500 g/ha (Setaria; 500 g of ai./ha): 100%; pest or weed control at 500 g/ha (Viola; 500 g of ai./ha): 100%; pest or weed control at 500 g/ha (Polygonum; 500 g of ai./ha): 100%; pest or weed control at 500 g/ha (Amaranthus; 500 g of ai./ha): 100%; plant injury at 500 g/ha (Wheat): 10%

Which results are given for CC(=O)Nc1nc(NC(C)c2ccc(Cl)cc2)nc(C(Cl)Cl)n1 (stereo not drawn) [drawing 133]?
pest or weed control at 500 g/ha (Chenopodium; 500 g of ai./ha): 100%; pest or weed control at 500 g/ha (Setaria; 500 g of ai./ha): 80%; pest or weed control at 500 g/ha (Viola; 500 g of ai./ha): 100%; pest or weed control at 500 g/ha (Polygonum; 500 g of ai./ha): 100%; pest or weed control at 500 g/ha (Amaranthus; 500 g of ai./ha): 100%; plant injury at 500 g/ha (Wheat): 10%

Which pest or weed control at 250 g/ha (Chenopodium) does the source give for COc1ccc(C(C)Nc2nc(N)nc(C(C)F)n2)cc1 (stereo not drawn) [drawing 136] here?
The pest or weed control at 250 g/ha was 100%.

What about the pest or weed control at 250 g/ha (Viola) of the same compound?
The pest or weed control at 250 g/ha was 95%.

What about the pest or weed control at 250 g/ha (Polygonum) of the same compound?
The pest or weed control at 250 g/ha was 100%.

And the pest or weed control at 250 g/ha (Amaranthus)?
The pest or weed control at 250 g/ha was 100%.

What about the plant injury at 250 g/ha (Wheat; 250 g of ai./ha) of the same compound?
The plant injury at 250 g/ha was 10%.

How did the pest or weed control at 250 g/ha (Chenopodium) turn out when CC(=O)Nc1nc(NC(C)c2ccc(Cl)cc2)nc(C(C)Cl)n1 (stereo not drawn) [drawing 122] was run?
Its pest or weed control at 250 g/ha is 100%.

What about the pest or weed control at 250 g/ha (Setaria) of the same compound?
The pest or weed control at 250 g/ha was 80%.

And the pest or weed control at 250 g/ha (Viola)?
The pest or weed control at 250 g/ha was 95%.

What about the pest or weed control at 250 g/ha (Polygonum) of the same compound?
Its pest or weed control at 250 g/ha is 100%.

What about the pest or weed control at 250 g/ha (Amaranthus) of the same compound?
The pest or weed control at 250 g/ha was 100%.

What about the plant injury at 250 g/ha (Wheat; 250 g of ai./ha) of the same compound?
Its plant injury at 250 g/ha is 10%.
